# Patent publication US20200010857A1 (priority 2016, published 2020)
# Like-named read-outs stand apart in the source and are kept apart here.
# How the values were obtained:
# [1] = system: Salinicoccus sp. QW6; conditions: K2TeO3 in rich medium, aerobic; Amoozegar et al. (2008); cited from earlier work
# [2] = system: Bacillus sp. STG-83; conditions: K2TeO3 in rich medium, aerobic; Soudi et al.(2009); cited from earlier work
# [3] = system: Paenibacillus TeW; conditions: K2TeO3 in rich medium, aerobic; Chien et al. (2009); cited from earlier work
# [4] = system: Lysinibacillus sp. ZYM-1; conditions: K2TeO3 in rich medium, aerobic; Zao et al. (2016); cited from earlier work
# [5] = system: Bacillus sp. BZ; conditions: K2TeO3 in rich medium, aerobic; Zare et al. (2012); cited from earlier work
# [6] = system: bacterial cells; conditions: cited from earlier work
# [7] = system: Corynebacterium difteriaes; conditions: K2TeO3 in rich medium, aerobic; Tucker et al. (1961); cited from earlier work
# [8] = system: Rhodococcus aetherivorans BCP1; assay: Minimal Inhibitory Concentration (MIC) of tellurite, kill curve; format: cell-based; conditions: for log reduction of BCP1 viable cells: 24 h
# Experimental: The strain Rhodococcus aetherivorans BCP1 (DSM 44980) was pre-cultured in 250 mL Erlenmeyer Baffled Flask for 2 days, containing 25 mL of Luria-Bertani medium (here indicated as LB) [composed of (g/L) NaCl, 10; Yeast Extract, 5; Tryptone, 10]. When necessary, the medium was solidified by adding 15 g/L of Agar. BCP1 cells were then inoculated (1% v/v) and grown for 5 days in 50 mL of LB medium supplied with either 100 (0.4 mM) or 500 (2 mM) μg/mL of K2TeO3. Here we refer to this first bacterial growth as unconditioned. After this growth step, BCP1 cells were re-inoculated (1% v/v) and cultured for other 5 days in 50 mL of fresh LB medium and 100 or 500 μg/mL of K2TeO3. This secondary bacterial growth is here defined as conditioned. Each culture was incubated aerobically at 30° C. with shaking (150 rpm). In order to evaluate the bacterial growth rate, every 24 h an aliquot (100 μL) of BCP1 cells was collected from each culture and serially diluted in sterile saline solution (NaCl 0.9% w/v). The cells were recovered on LB agar plates for 48 h at 30° C. The number of growing cells is reported as average of the Colony Forming Unit per milliliter (CFU mL^−1) counted for each biological trial (n=3) with standard deviation. All the reagents were purchased from Sigma-Aldrich®.
# After 24 h of incubation the number of viable cells was determined by spot plates count on LB agar recovery plates. The assay was conducted in triplicate and the data are reported as average of the CFU mL-1 counted with standard deviation. The established MIC and corresponding kill curve was used to choose the best concentration of K2TeO3 to use for nano-material production.
# [9] = system: Rhodococcus aetherivorans BCP1; assay: Growth of BCP1 in LB supplied with Na2SeO3 (spot plate count); format: cell-based; conditions: unconditioned cells
# Experimental: (§1) Rhodococcus aetherivorans BCP1 strain (DSM 44980) was pre-cultured in 250 mL Erlenmeyer Baffled Flask for 48 h in 25 mL of Luria-Bertani medium (indicated as LB) [containing (g/L) NaCl, 10; Yeast Extract, 5; Tryptone, 10]. When necessary the medium was solidified by adding 15 g/L of Agar. BCP1 cells were then inoculated (1% v/v) and grown for 120 h in 50 mL of LB broth to which was added either 0.5 mM or 2 mM of Na2SeO3. This first bacterial growth is here defined as unconditioned. After the unconditioned growth, BCP1 cells were re-inoculated (1% v/v) and cultured for other 120 h in 50 mL of fresh LB medium supplied with a new addition of either 0.5 or 2 mM of Na2SeO3. Here we refer to this bacterial growth as conditioned. Unconditioned or conditioned cultures were incubated aerobically at 30° C. with shaking (150 rpm). Bacterial growth rate was evaluated by spot plate count method every 24 h over the incubation time. LB agar plates containing the spotted cells were recovered for 48 h at 30° C. The number of growing cells is reported as mean the Colony forming Unit (log10[CFU/mL]) with standard deviation. All the reagents were purchased from Sigma-Aldrich®.
# [10] = system: Rhodococcus aetherivorans BCP1; assay: Tolerance of BCP1 towards SeO3^2− oxyanions (MIC^Se); format: cell-based
# Experimental: as §1
# The BCP1 strain has been exposed to different concentrations of Na2SeO3, ranging from 0.5 to 200 mM as initial concentration to evaluate its tolerance towards these toxic oxyanions. Briefly, after 24 h of exposure to each concentration of Na2SeO3 tested, BCP1 cells were serially diluted in sterile saline solution (NaCl 0.9% w/v) and the number of viable cells were determined by spot plates count on LB agar recovery plates. The assay was conducted in triplicate and the viable cell numbers are indicated as the average of the log10[CFU/mL] with standard deviation.
smiles,measurement,setting,value
"O=[Te]([O-])[O-].[K+].[K+] [K2TeO3, potassium tellurite]",MIC^Te,[1],12000 µM
same,MIC^Te,[2],1250 µM
same,MIC^Te,[3],1000 µM
same,MIC^Te,[4],2000 µM
same,MIC^Te,[5],800 µM
same,MIC^Te,[6]; aerobic growth,2 µg/mL
same,MIC^Te,[6]; anaerobic growth,250 µg/mL
same,MIC^Te,[7],1000 µM
same,number of BCP1 viable cells,[8]; 24 h exposure to 100 μg/mL K2TeO3,5.00·10^5 CFU/mL
same,number of BCP1 viable cells,[8]; 24 h exposure to 500 μg/mL K2TeO3,1.00·10^5 CFU/mL
same,decrease of number of BCP1 viable cells,[8]; 24 h exposure to 100 or 500 μg/mL K2TeO3,less than 1 log
same,Minimal Inhibitory Concentration (MIC) of TeO3^2−,"[8]; 24 h exposure to K2TeO3 in LB, aerobic",2800 µg/mL
same,Minimal Inhibitory Concentration (MIC^Te),"[8]; 24 h exposure to K2TeO3 in rich medium (LB), aerobic",11200 µM
same,log reduction of BCP1 viable cells,[8]; K2TeO3 varied from 100 to 1000 μg/mL (0.4-4 mM),1 log
same,log reduction of BCP1 viable cells,[8]; K2TeO3 varied from 100 to 2000 μg/mL (0.4-8 mM),2 log
same,log reduction of viable cells vs number at time of inoculation,"[8]; at the MIC, 2800 μg/mL K2TeO3, 24 h",3 log
same,BCP1 strain tolerance relative to MIC^Te of Corynebacterium difteriaes,[8]; ratio of MIC^Te values,ten times higher
"O=[Se](O)O [Na2SeO3, sodium selenite]",number of live cells counted,"[9]; 0.5 mM Na2SeO3, 72 h",6.33·10^6 CFU/mL
same,number of viable cells,"[9]; 0.5 mM Na2SeO3, 120 h",1.2·10^6 CFU/mL
same,number of growing cells,"[9]; 2 mM Na2SeO3, 72 h",4.24·10^6 CFU/mL
same,number of growing cells,"[9]; 2 mM Na2SeO3, 120 h",9.83·10^5 CFU/mL
same,log reduction in number of viable cells,"[10]; 0.5 mM versus 200 mM Na2SeO3, 24 h",2 log
same,number of viable cells,[10]; 24 h exposure to 0.5 mM Na2SeO3,2.00·10^6 CFU/mL
same,number of viable cells,"[10]; 24 h exposure to 0.5 mM Na2SeO3, listed as SeO3^2−",2·10^6 CFU/mL
same,number of viable cells,[10]; 24 h exposure to 2 mM SeO3^2−,1.72·10^6 CFU/mL
same,number of viable cells,[10]; 24 h exposure to 200 mM Na2SeO3,6.17·10^4 CFU/mL
same,"BCP1 tolerance, times higher than MIC^Se of Streptomyces microflavus FSHJ31",[10]; ratio of MIC^Se values,80 times
same,"BCP1 tolerance, times higher than MIC^Se of Streptomyces sp. ES2-5",[10]; ratio of MIC^Se values,4 times
